Tests used:
Assay in all cases: relative viability (nuclei count vs DMSO), 5 days (fraction); higher = more cells survive
IPA-3 + Trametinib = compound: C1=CC=C2C(=C1)C=CC(=C2SSC3=C(C=CC4=CC=CC=C43)O)O [IPA-3] + CC(=O)Nc1cccc(-n2c(=O)n(C3CC3)c(=O)c3c(Nc4ccc(I)cc4F)n(C)c(=O)c(C)c32)c1 [Trametinib] (partner 0.02 µM)
Procedure, shortened: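 A single step with final 0.05% Triton X-100, 1% formaldehyde and 1 ug/ml Hoechst fixed the cells and stained nuclei 5 days after treatment. Lung cancer cell lines in 1536-well plates had been treated by pin tool the day after seeding with one drug alone or a fixed anchor-drug dose plus five library-drug doses (not always all listed) in √10 steps, and nuclei were counted on 4× images. Relative viability is the ratio of nuclei in treated wells to nuclei in vehicle wells, taken as the median of duplicate plates.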

IPA-3 = compound: C1=CC=C2C(=C1)C=CC(=C2SSC3=C(C=CC4=CC=CC=C43)O)O [IPA-3]
Procedure, shortened: (§1)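 Lung cancer cell lines in 1536-well plates were kept overnight at 37 °C, then pinned with five library-drug doses (not always all listed) spaced by √10 on vehicle-anchored plates. After 5 days without medium change, cells were fixed, permeabilised and Hoechst-stained in one step, imaged at 4×, and nuclei were counted with MetaXpress. Viability is treated-well nuclei divided by vehicle-well nuclei, taken as the median over plates. Plates passed only with control CV below 25% and at least one doubling.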

Doramapimod = compound: Cc1ccc(-n2nc(C(C)(C)C)cc2NC(=O)Nc2ccc(OCCN3CCOCC3)c3ccccc23)cc1 [Doramapimod]
Procedure, shortened: as §1

RAF265 = compound: Cn1c(Nc2ccc(C(F)(F)F)cc2)nc2cc(Oc3ccnc(-c4ncc(C(F)(F)F)[nH]4)c3)ccc21 [RAF265]
Procedure, shortened: as §1

Cell Line	relative viability (IPA-3 + Trametinib; first compound 0.2 µM)	relative viability (IPA-3 + Trametinib; first compound 0.6325 µM)	relative viability (IPA-3 + Trametinib; first compound 2 µM)	relative viability (IPA-3 + Trametinib; first compound 6.325 µM)	relative viability (IPA-3 + Trametinib; first compound 20 µM)	relative viability (IPA-3; 0.2 µM)	relative viability (IPA-3; 0.6325 µM)	relative viability (IPA-3; 2 µM)	relative viability (IPA-3; 6.325 µM)	relative viability (IPA-3; 20 µM)	relative viability (Doramapimod; 0.02 µM)	relative viability (Doramapimod; 0.06325 µM)	relative viability (Doramapimod; 0.2 µM)	relative viability (Doramapimod; 0.6325 µM)	relative viability (Doramapimod; 2 µM)	relative viability (RAF265; 0.01 µM)	relative viability (RAF265; 0.03162 µM)	relative viability (RAF265; 0.1 µM)	relative viability (RAF265; 0.3162 µM)	relative viability (RAF265; 1 µM)
NCI-H1975	0.328	0.325	0.331	0.424	0.323	1.06	0.924	0.957	1.1	0.993	1.03	1.04	1.08	1.05	1.04	0.932	0.956	0.602	0.442	0.406
NCI-H358	0.136	0.132	0.134	0.134	0.114	1.06	0.892	0.917	0.965	0.949	0.873	0.881	0.973	0.923	0.88	1.03	0.903	0.686	0.382	0.262
PC-3 [JPC-3]	0.785	0.713	0.744	0.705	0.699	1.09	1.07	1.01	0.96	1	1.15	1.11	1.1	1.13	0.904	1.07	1	1.12	0.488	0.743
NCI-H1792	0.526	0.504		0.407	0.495	1.32	0.794	0.952	0.809	1.08	0.954	0.869	0.971	0.913	0.715	0.893	0.73	0.648	0.246	0.249
NCI-H596	0.842	0.756	0.861	0.801	0.818	0.934	0.989	0.977	1.13	1.2	1.02	1.12	0.957	0.92	0.984	1.28	0.987	1.07	1.03	0.829
RERF-LC-KJ	1.01	0.877	0.84	0.872	0.891	1.14	0.943	0.946	0.991	1.07	1.09	1.03	1.07	1.02	0.999	1.03	0.974	0.987	0.791	0.715
NCI-H322M	0.459	0.481	0.567	0.453	0.581	1.01	0.902	1.02	1.03	1	1.05	0.993	0.998	1.3	0.937	1.04	1	0.597	0.38	0.282
COR-L 105	0.484	0.509	0.474	0.445	0.442	1.2	0.882	0.901	0.984	0.827	0.861	0.93	0.935	1.1	0.993	1.08	1.05	0.954	0.463	0.563
NCI-H1993	0.491	0.475	0.468	0.558	0.506	0.981	0.99	0.873	0.97	1.01	1.06	0.941	0.852	1.14	0.864	1.04	0.94	1	0.799	0.794
NCI-H1437	0.712	0.611	0.483	0.468	0.546	1.13	1.01	0.994	1.04	1.08	1.05	1.05	0.985	1.07	0.948	1.02	0.99	1.01	1.03	0.954
EBC-1						1.29	0.984	1.01	0.963	0.933	0.949	0.987	0.991	1.03	0.838	1.05	0.966	0.939	0.794	0.611
ABC-1						1.08	0.972	0.805	1.04	1.02	0.996	0.864	0.955	0.895	0.961	1.22	0.881	0.986	0.803	0.633
NCI-H1563						1.09	0.959	1.01	1.1	1.17	0.996	0.996	1.11	1.28	1.06	1.06	1.05	1.01	1.03	0.932
NCI-H1299						1.1	0.995	1.02	0.94	0.98	1.04	1.02	1.02	1.05	0.967	1.08	0.97	0.961	0.793	0.616
A549						1.18	0.962	1.01	1.05	1.16	0.956	0.976	0.951	0.999	0.878	1.01	0.926	0.967	0.667	0.412
NCI-H1623						1.07	0.943	0.971	0.951	0.993	0.986	0.982	0.944	0.775	0.88	1.06	0.945	1.09	0.456	0.798
NCI-H1703						1.27	0.86	1.02	0.935	1.04	0.923	0.918	0.876	1.11	0.612	0.783	0.792	0.831	0.652	0.352
Calu-6						1.1	0.971	0.984	0.998	1.04	0.995	0.979	1.04	1.09	1.01	0.97	0.842	0.791	0.505	0.347
